Read-outs that look alike come from different tables or passages of the source.
Experiments:
[1] = relative to mangafodipir; cited from earlier work
[2] = Zn^2+ binding to fodipir; cited from earlier work
CT26 colon cancer cells = conditions: cited from earlier work
[3] = Ca^2+ binding to fodipir; cited from earlier work
[4] = Mn^2+ binding to fodipir; cited from earlier work
[5] = Platinum (Pt) urine excretion in rats receiving oxaliplatin i.v. after i.v. mangafodipir, fodipir or saline (Example 2); format: in vivo, Wistar rats; conditions: 0-24 h urine; for recovery of oxaliplatin-derived Pt in urine, % of the administered dose: 26.4 μmol/kg i.v. 5 min before oxaliplatin 2 mg/kg i.v., administered Pt 277.5 μg, saline control 31.3%; for increase in Pt-excretion: versus saline control
Procedure: 2 male Wistar rats (approximately 250 g) were injected i.v., via one of the tail veins, with 0.25 ml mangafodipir (20 mg/kg; Lot no. 303001, Nycomed Imaging AS) or fodipir (17.4 mg/kg; Lot no. PKJ 1285/113-14, Nycomed Imaging AS), each corresponding to 26.4 μmol/kg. Another control rat received saline instead of mangafodipir or fodipir. […] The rats were then immediately placed in metabolic cages for urine collection over a period of 0-24 hours. The urine samples were thereafter stored at −80° C. until Pt analysis. Before analysis, the samples were thawed and extensively shaken to obtain homogenous samples. A five ml aliquot was taken from each sample and 5 ml concentrated nitric acid was added. The samples were then resolved in a microwave oven and thereafter diluted with distilled water. The Pt content of each sample was analyzed by ICP-MS (Inductively Coupled Plasma Mass Spectrometry). […] This sample was treated in an identical manner to that of the urine samples and analyzed for its Pt content. Results are presented as total 0-24 h urine Pt content, expressed as the total amount, as well as, as percentage of the injected dose.

[6] = patients, single dose, over a 5-day period; cited from earlier work
[7] = in vivo; cited from earlier work
[8] = cited from earlier work
[9] = 10 μmol/kg mangafodipir in 14 of 15 cycles, accumulated dose 140 μmol/kg; patient showed PD-like neurological symptoms; cited from earlier work
[10] = cited from earlier work; for Mn^2+ content released from fodipir or its metabolites: intravenous, MRI dose 5-10 μmol/kg

Cc1ncc(COP(=O)([O-])O)c(CN(CCN(CC(=O)O)Cc2c(COP(=O)([O-])O)cnc(C)c2O)CC(=O)O)c1O.Cc1ncc(COP(=O)([O-])O)c(CN(CCN(CC(=O)O)Cc2c(COP(=O)([O-])O)cnc(C)c2O)CC(=O)O)c1O.Cc1ncc(COP(=O)([O-])O)c(CN(CCN(CC(=O)O)Cc2c(COP(=O)([O-])O)cnc(C)c2O)CC(=O)O)c1O.Cc1ncc(COP(=O)([O-])O)c(CN(CCN(CC(=O)O)Cc2c(COP(=O)([O-])O)cnc(C)c2O)CC(=O)O)c1O.Cc1ncc(COP(=O)([O-])O)c(CN(CCN(CC(=O)O)Cc2c(COP(=O)([O-])O)cnc(C)c2O)CC(=O)O)c1O.[Ca+2].[Ca+2].[Ca+2].[Ca+2].[Mn+2] [calmangafodipir]
manganese retention (and brain retention) reduced to [1]: about 50%

Cc1ncc(COP(=O)(O)O)c(CN(CCN(CC(=O)O)Cc2c(COP(=O)(O)O)cnc(C)c2O)CC(=O)O)c1O [fodipir, N,N′-bis-(pyridoxyl-5-phosphate)-ethylenediamine-N,N′-diacetic acid]
log formation constant (log KML) [2]: 18
effect of fodipir on cell killing in the lower concentration range of oxaliplatin (CT26 colon cancer cells; fodipir 10 μM): additive effect
cell killing activity of fodipir towards CT26 colon cancer cells (CT26 colon cancer cells; fodipir 100 μM alone): almost complete cell killing activity
interference of fodipir with the cancer cell killing ability of oxaliplatin (CT26 colon cancer cells; fodipir 10, 30, 100 μM): Neither 10, 30, nor 100 μM fodipir interfered negatively
log formation constant (log KML) [3]: 9
log formation constant (log KML) [4]: 15
recovery of oxaliplatin-derived Pt in urine, % of the administered dose [5]: 43.4%
increase in Pt-excretion [5]: 40.6%

O=C(O)C(=O)O.[NH-][C@@H]1CCCC[C@H]1[NH-].[Pt+2] [oxaliplatin]
Pt dose excreted in feces [6]: 2.1%
Pt dose excreted in the urine [6]: 53.8%
terminal Pt half-life in red blood cells (RBC) [7]: about 50 days
volume of distribution [7]: about 600 litres
killing of CT26 cells by oxaliplatin (CT26 colon cancer cells; oxaliplatin alone): killed CT26 cells in a concentration-dependent manner

mangafodipir
mean plasma Mn content ([8]; after eight cycles with 5 μmol/kg mangafodipir co-treatment (accumulated 40 μmol/kg), before 11.8±5.5 nM): 19.8 ± 4.3 nM
pre-existing oxaliplatin-induced PSN after combined oxaliplatin and mangafodipir treatment ([8]; patients with PSN grade 2 or worse on a 1-3 scale): improved
brain MRI finding [9]: increased T1-weighted signal intensity in the basal ganglia
Mn^2+ that stays bound ([10]; MRI dose 5-10 μmol/kg injected): 20%
Mn^2+ content released from fodipir or its metabolites [10]: About 80%
Mn^2+ content released from fodipir or its metabolites ([10]; listed as Mangafodipir): about 80%
recovery of oxaliplatin-derived Pt in urine, % of the administered dose [5]: 33.8%
increase in Pt-excretion [5]: 8.0%
